What all share (experiment): cAMP functional assay (HTRF) in HEK293 cells in presence of 0.1% casein
Common to all, as to format: cell-based
(TR-FRET usually uses a lanthanide donor and a delayed reading to cut background.)

Assay [1] deals with T1, human GLP-1 receptor (GLP-1R) (Homo sapiens, UniProt P43220).
T1 construct: expressed in transfected cells; host or cells: HEK293
The conditions noted are these: HEK293 cells expressing human GLP-1R, geometric mean, read-out: hGLP1R cAMP Rel EC50 nM (SEM, n).

For assay [2], the target named is T2, human glucagon receptor (GcgR) (Homo sapiens, UniProt P47871).
T2 construct: expressed in transfected cells; host or cells: HEK293
The note with it: HEK293 cells expressing human GcgR, geometric mean, read-out: hGcgR cAMP Rel EC50 nM (SEM, n).

Assay [3] deals with T3, human glucose-dependent insulinotropic peptide receptor (GIPR) (Homo sapiens, UniProt P48546).
T3 construct: expressed in transfected cells; host or cells: HEK293
T3 sequence (P48546 22-466): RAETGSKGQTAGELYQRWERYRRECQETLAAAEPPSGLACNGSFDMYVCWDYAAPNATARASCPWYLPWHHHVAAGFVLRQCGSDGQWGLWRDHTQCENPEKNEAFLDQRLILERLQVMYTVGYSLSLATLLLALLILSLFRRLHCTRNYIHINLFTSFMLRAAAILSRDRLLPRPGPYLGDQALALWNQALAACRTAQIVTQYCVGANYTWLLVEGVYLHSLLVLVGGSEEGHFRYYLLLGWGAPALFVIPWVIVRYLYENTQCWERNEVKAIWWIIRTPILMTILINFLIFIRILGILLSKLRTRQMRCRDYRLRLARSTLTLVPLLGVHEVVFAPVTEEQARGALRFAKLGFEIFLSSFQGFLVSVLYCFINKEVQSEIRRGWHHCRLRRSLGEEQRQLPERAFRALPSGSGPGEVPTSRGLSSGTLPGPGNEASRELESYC
The conditions noted are these: HEK293 cells expressing human GIPR, geometric mean, read-out: hGIPR cAMP Rel EC50 nM (SEM, n).

*1 amine or outer side, *2 acyl side, *3 side chain or, on linkers, in order; H or OH if unused. Where a SMILES comes first, the peptide text is derived from it. Side-chain parts run from the residue outwards. [ ]: non-standard residue; d: D form. The star is where a group is joined. C20 diacid = O=C(O)CCCCCCCCCCCCCCCCCCC(=O)*; C18 diacid = O=C(O)CCCCCCCCCCCCCCCCC(=O)*; γGlu = O=C(O)[C@H](CCC(=O)[*:2])N[*:1]; 4Pal = N[C@@H](Cc1ccncc1)C(=O)O; αMeL = CC(C)C[C@](C)(N)C(=O)O; Iva = CC[C@](C)(N)C(=O)O; Orn = NCCC[C@H](N)C(=O)O; AEEA = NCCOCCOCC(=O)O; Aib = CC(C)(N)C(=O)O

T2 sequence (P47871 26-477): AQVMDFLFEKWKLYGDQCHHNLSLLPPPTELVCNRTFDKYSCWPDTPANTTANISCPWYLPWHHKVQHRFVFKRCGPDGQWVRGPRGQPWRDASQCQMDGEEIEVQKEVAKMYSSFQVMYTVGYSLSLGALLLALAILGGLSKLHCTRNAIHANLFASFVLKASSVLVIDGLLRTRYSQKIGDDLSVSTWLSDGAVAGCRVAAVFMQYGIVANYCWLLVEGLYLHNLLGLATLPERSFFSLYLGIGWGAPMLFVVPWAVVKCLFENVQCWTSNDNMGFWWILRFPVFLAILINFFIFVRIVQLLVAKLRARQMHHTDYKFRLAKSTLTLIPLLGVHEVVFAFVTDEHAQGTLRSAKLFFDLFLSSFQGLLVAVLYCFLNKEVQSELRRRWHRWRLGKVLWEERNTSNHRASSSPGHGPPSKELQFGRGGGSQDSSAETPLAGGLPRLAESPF
T1 sequence (P43220 24-463): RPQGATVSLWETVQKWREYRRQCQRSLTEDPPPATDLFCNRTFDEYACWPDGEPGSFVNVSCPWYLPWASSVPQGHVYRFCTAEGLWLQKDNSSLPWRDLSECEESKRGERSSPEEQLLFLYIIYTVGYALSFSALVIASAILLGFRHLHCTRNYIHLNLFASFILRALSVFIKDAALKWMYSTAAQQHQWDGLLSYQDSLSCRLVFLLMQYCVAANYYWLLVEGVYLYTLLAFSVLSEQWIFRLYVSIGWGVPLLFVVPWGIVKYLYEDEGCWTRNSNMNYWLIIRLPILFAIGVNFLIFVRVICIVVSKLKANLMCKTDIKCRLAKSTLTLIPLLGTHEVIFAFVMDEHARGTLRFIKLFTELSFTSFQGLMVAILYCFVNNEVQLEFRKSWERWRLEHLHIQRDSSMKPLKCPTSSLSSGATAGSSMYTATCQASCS

Turning to `CC[C@H](C)[C@H](NC(=O)[C@H](Cc1ccccc1)NC(=O)[C@@H](NC(=O)CNC(=O)[C@H](CCC(=O)O)NC(=O)C(C)(C)NC(=O)[C@@H](N)Cc1ccc(O)cc1)[C@@H](C)O)C(=O)N[C@@H](CO)C(=O)N[C@@H](CC(=O)O)C(=O)N[C@@H](Cc1ccc(O)cc1)C(=O)N[C@@H](CO)C(=O)N[C@H](C(=O)N[C@@](C)(CC(C)C)C(=O)N[C@@H](CC(C)C)C(=O)N[C@@H](CC(=O)O)C(=O)N[C@@H](CCC(=O)O)C(=O)N[C@@H](CCCCNC(=O)COCCOCCNC(=O)COCCOCCNC(=O)CC[C@H](NC(=O)CCCCCCCCCCCCCCCCCCC(=O)O)C(=O)O)C(=O)N[C@@H](Cc1c[nH]cn1)C(=O)N[C@@H](CCC(N)=O)C(=O)NC(C)(C)C(=O)N[C@@H](CC(=O)O)C(=O)N[C@@H](Cc1ccccc1)C(=O)N[C@H](C(=O)N[C@@H](CCC(=O)O)C(=O)N[C@@H](Cc1ccncc1)C(=O)N[C@@H](CC(C)C)C(=O)N[C@@H](CC(C)C)C(=O)N[C@@H](C)C(=O)N[C@@H](CCC(N)=O)C(=O)NCC(=O)N1CCC[C@H]1C(=O)N[C@@H](CO)C(=O)N[C@@H](CO)C(=O)NCC(=O)N[C@@H](C)C(=O)N1CCC[C@H]1C(=O)N1CCC[C@H]1C(=O)N1CCC[C@H]1C(=O)N[C@@H](CO)C(N)=O)C(C)C)[C@@H](C)CC` [Example 84] (H-Y[Aib]EGTFISDYSI[αMeL]LDEK([AEEA-AEEA-γGlu-C20 diacid])HQ[Aib]DFVE[4Pal]LLAQGPSSGAPPPS-NH2), the EC50 (commonly the concentration that produces a half-maximal response) in assay [1] was > 5000 nM; in assay [2], > 5000 nM; in assay [3], 0.034 nM.

Take `CC[C@H](C)[C@H](NC(=O)[C@H](Cc1ccccc1)NC(=O)[C@@H](NC(=O)CNC(=O)[C@H](CCC(=O)O)NC(=O)C(C)(C)NC(=O)[C@@H](N)Cc1ccc(O)cc1)[C@@H](C)O)C(=O)N[C@@H](CO)C(=O)N[C@@H](CC(=O)O)C(=O)N[C@@H](Cc1ccc(O)cc1)C(=O)N[C@@H](CO)C(=O)N[C@H](C(=O)N[C@@](C)(CC(C)C)C(=O)N[C@@H](CC(C)C)C(=O)N[C@@H](CC(=O)O)C(=O)N[C@@H](CCC(=O)O)C(=O)N[C@@H](CCCCNC(=O)COCCOCCNC(=O)COCCOCCNC(=O)CC[C@H](NC(=O)CCCCCCCCCCCCCCCCCCC(=O)O)C(=O)O)C(=O)N[C@@H](Cc1c[nH]cn1)C(=O)N[C@@H](CCC(N)=O)C(=O)NC(C)(C)C(=O)N[C@@H](CC(=O)O)C(=O)N[C@@H](Cc1ccccc1)C(=O)N[C@H](C(=O)N[C@@H](CCC(=O)O)C(=O)N[C@@H](Cc1ccncc1)C(=O)N[C@@H](CC(C)C)C(=O)N[C@@H](CC(C)C)C(=O)N[C@@H](C)C(=O)N[C@@H](C)C(=O)NCC(=O)N1CCC[C@H]1C(=O)N[C@@H](CO)C(=O)N[C@@H](CO)C(=O)NCC(=O)N[C@@H](C)C(=O)N1CCC[C@H]1C(=O)N1CCC[C@H]1C(=O)N1CCC[C@H]1C(=O)N[C@@H](CO)C(N)=O)C(C)C)[C@@H](C)CC` [Example 85]: the values for the EC50 in assay [1], in assay [2] and in assay [3] were > 5000 nM, > 5000 nM and 0.0359 nM, respectively.

For `CC[C@H](C)[C@H](NC(=O)[C@H](Cc1ccccc1)NC(=O)[C@@H](NC(=O)CNC(=O)[C@H](CCC(=O)O)NC(=O)C(C)(C)NC(=O)[C@@H](N)Cc1ccc(O)cc1)[C@@H](C)O)C(=O)N[C@@H](CO)C(=O)N[C@@H](CC(=O)O)C(=O)N[C@@H](Cc1ccc(O)cc1)C(=O)N[C@@H](CO)C(=O)N[C@H](C(=O)N[C@@](C)(CC(C)C)C(=O)N[C@@H](CC(C)C)C(=O)N[C@@H](CC(=O)O)C(=O)N[C@@H](CCC(=O)O)C(=O)N[C@@H](CCCCNC(=O)COCCOCCNC(=O)COCCOCCNC(=O)CC[C@H](NC(=O)CCCCCCCCCCCCCCCCCCC(=O)O)C(=O)O)C(=O)N[C@@H](Cc1c[nH]cn1)C(=O)N[C@@H](CCC(N)=O)C(=O)NC(C)(C)C(=O)N[C@@H](CC(=O)O)C(=O)N[C@@H](Cc1ccccc1)C(=O)N[C@H](C(=O)N[C@@H](CCC(=O)O)C(=O)N[C@@H](Cc1ccncc1)C(=O)N[C@@H](CC(C)C)C(=O)N[C@@H](CC(C)C)C(=O)N[C@@H](C)C(=O)NCC(=O)NCC(=O)N1CCC[C@H]1C(=O)N[C@@H](CO)C(=O)N[C@@H](CO)C(=O)NCC(=O)N[C@@H](C)C(=O)N1CCC[C@H]1C(=O)N1CCC[C@H]1C(=O)N1CCC[C@H]1C(=O)N[C@@H](CO)C(N)=O)C(C)C)[C@@H](C)CC` [Example 86], the results for the EC50 in assay [1], in assay [2] and in assay [3] were > 5000 nM, > 5000 nM and 0.03 nM, respectively.

For `CC[C@H](C)[C@H](NC(=O)[C@H](Cc1ccccc1)NC(=O)[C@@H](NC(=O)CNC(=O)[C@H](CCC(=O)O)NC(=O)C(C)(C)NC(=O)[C@@H](N)Cc1ccc(O)cc1)[C@@H](C)O)C(=O)N[C@@H](CO)C(=O)N[C@@H](CC(=O)O)C(=O)N[C@@H](Cc1ccc(O)cc1)C(=O)N[C@@H](CO)C(=O)N[C@H](C(=O)N[C@@](C)(CC(C)C)C(=O)N[C@@H](CC(C)C)C(=O)N[C@@H](CC(=O)O)C(=O)N[C@@H](CCCN)C(=O)N[C@@H](CCCCNC(=O)COCCOCCNC(=O)COCCOCCNC(=O)CC[C@H](NC(=O)CCCCCCCCCCCCCCCCC(=O)O)C(=O)O)C(=O)N[C@@H](Cc1c[nH]cn1)C(=O)N[C@@H](CCC(N)=O)C(=O)NC(C)(C)C(=O)N[C@@H](CC(=O)O)C(=O)N[C@@H](Cc1ccccc1)C(=O)N[C@H](C(=O)N[C@@H](CCC(=O)O)C(=O)N[C@@H](Cc1ccncc1)C(=O)N[C@@H](CC(C)C)C(=O)N[C@@H](CC(C)C)C(=O)N[C@@H](CCC(=O)O)C(=O)N[C@@H](C)C(=O)NCC(=O)N1CCC[C@H]1C(=O)N[C@@H](CO)C(=O)N[C@@H](CO)C(=O)NCC(=O)N[C@@H](C)C(=O)N1CCC[C@H]1C(=O)N1CCC[C@H]1C(=O)N1CCC[C@H]1C(=O)N[C@@H](CO)C(N)=O)C(C)C)[C@@H](C)CC` [Example 87] (H-Y[Aib]EGTFISDYSI[αMeL]LD[Orn]K([AEEA-AEEA-γGlu-C18 diacid])HQ[Aib]DFVE[4Pal]LLEAGPSSGAPPPS-NH2), the EC50 is > 5000 nM in assay [1], > 5000 nM in assay [2] and 0.0107 nM in assay [3].

For `CC[C@H](C)[C@H](NC(=O)[C@H](CO)NC(=O)[C@H](Cc1ccc(O)cc1)NC(=O)[C@H](CC(=O)O)NC(=O)[C@H](CO)NC(=O)[C@@H](NC(=O)[C@](C)(CC)NC(=O)[C@@H](NC(=O)CNC(=O)[C@H](CCC(=O)O)NC(=O)C(C)(C)NC(=O)[C@@H](N)Cc1ccc(O)cc1)[C@@H](C)O)[C@@H](C)CC)C(=O)N[C@@](C)(CC(C)C)C(=O)N[C@@H](CC(C)C)C(=O)N[C@@H](CC(=O)O)C(=O)N[C@@H](CCCCN)C(=O)N[C@@H](CCCCNC(=O)COCCOCCNC(=O)COCCOCCNC(=O)CC[C@H](NC(=O)CCCCCCCCCCCCCCCCCCC(=O)O)C(=O)O)C(=O)N[C@@H](Cc1c[nH]cn1)C(=O)N[C@@H](CCC(N)=O)C(=O)NC(C)(C)C(=O)N[C@@H](CC(=O)O)C(=O)N[C@@H](Cc1ccccc1)C(=O)N[C@H](C(=O)N[C@@H](CCC(=O)O)C(=O)N[C@@H](Cc1ccncc1)C(=O)N[C@@H](CC(C)C)C(=O)N[C@@H](CC(C)C)C(=O)N[C@@H](CCC(=O)O)C(=O)N[C@@H](C)C(=O)NCC(=O)N1CCC[C@H]1C(=O)N[C@@H](CO)C(=O)N[C@@H](CO)C(=O)NCC(=O)N[C@@H](C)C(=O)N1CCC[C@H]1C(=O)N1CCC[C@H]1C(=O)N1CCC[C@H]1C(=O)N[C@@H](CO)C(N)=O)C(C)C` [Example 88] (H-Y[Aib]EGT[Iva]ISDYSI[αMeL]LDKK([AEEA-AEEA-γGlu-C20 diacid])HQ[Aib]DFVE[4Pal]LLEAGPSSGAPPPS-NH2), the EC50 is > 5000 nM in assay [1], 1670 nM in assay [2] and 0.0031 nM in assay [3].

These data come from US12723063B2, “GIPR-agonist compounds” (Eli Lilly and Company, priority 2019, dated 2026).
